From PubChem BioAssay (NCI)
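Following 48 hours of exposure in 96-well plates, responses at five concentrations were used to interpolate endpoints linearly. TGI is the concentration that stops growth completely.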

Legend:
Assay in all cases: NCI-60 cell line screen, 48 h
786-0 renal = test system: 786-0 renal
A549 NSCLC = test system: A549 NSCLC
ACHN renal = test system: ACHN renal
CCRF-CEM leukemia = test system: CCRF-CEM leukemia
COLO 205 colon = test system: COLO 205 colon
DLD-1 colon = test system: DLD-1 colon
DMS 114 small cell lung = test system: DMS 114 small cell lung
DMS 273 small cell lung = test system: DMS 273 small cell lung
EKVX NSCLC = test system: EKVX NSCLC
HCC-2998 colon = test system: HCC-2998 colon
HCT-116 colon = test system: HCT-116 colon
HCT-15 colon = test system: HCT-15 colon
HL-60(TB) leukemia = test system: HL-60(TB) leukemia
HOP-18 NSCLC = test system: HOP-18 NSCLC
HOP-62 NSCLC = test system: HOP-62 NSCLC
HOP-92 NSCLC = test system: HOP-92 NSCLC
HT29 colon = test system: HT29 colon
IGROV1 ovarian = test system: IGROV1 ovarian
K-562 leukemia = test system: K-562 leukemia
KM12 colon = test system: KM12 colon
KM20L2 colon = test system: KM20L2 colon
LOX IMVI melanoma = test system: LOX IMVI melanoma
LXFL 529 NSCLC = test system: LXFL 529 NSCLC
M14 melanoma = test system: M14 melanoma
M19-MEL melanoma = test system: M19-MEL melanoma
MALME-3M melanoma = test system: MALME-3M melanoma
MOLT-4 leukemia = test system: MOLT-4 leukemia
NCI-H226 lung = test system: NCI-H226 lung
NCI-H23 lung = test system: NCI-H23 lung
NCI-H460 lung = test system: NCI-H460 lung
OVCAR-3 ovarian = test system: OVCAR-3 ovarian
OVCAR-4 ovarian = test system: OVCAR-4 ovarian
OVCAR-5 ovarian = test system: OVCAR-5 ovarian
OVCAR-8 ovarian = test system: OVCAR-8 ovarian
RXF 393 renal = test system: RXF 393 renal
RXF-631 renal = test system: RXF-631 renal
SF-268 CNS = test system: SF-268 CNS
SF-295 CNS = test system: SF-295 CNS
SF-539 CNS = test system: SF-539 CNS
SK-MEL-2 melanoma = test system: SK-MEL-2 melanoma
SK-MEL-28 melanoma = test system: SK-MEL-28 melanoma
SK-MEL-5 melanoma = test system: SK-MEL-5 melanoma
SK-OV-3 ovarian = test system: SK-OV-3 ovarian
SN12C renal = test system: SN12C renal
SNB-19 CNS = test system: SNB-19 CNS
SNB-78 CNS = test system: SNB-78 CNS
SR leukemia = test system: SR leukemia
SW-620 colon = test system: SW-620 colon
TK-10 renal = test system: TK-10 renal
U251 CNS = test system: U251 CNS
UACC-257 melanoma = test system: UACC-257 melanoma
UACC-62 melanoma = test system: UACC-62 melanoma
UO-31 renal = test system: UO-31 renal
A498 renal = test system: A498 renal
CAKI-1 renal = test system: CAKI-1 renal
NCI-H522 lung = test system: NCI-H522 lung
RPMI-8226 leukemia = test system: RPMI-8226 leukemia
SNB-75 CNS = test system: SNB-75 CNS
XF 498 CNS = test system: XF 498 CNS

NC1=NN(c2ccccc2)C(=O)C1C(=O)C(=O)NC1C2CC3CC(C2)CC1C3 (configuration not stated)
TGI (786-0 renal): > 100 µM
TGI (A549 NSCLC): > 100 µM
TGI (ACHN renal): > 100 µM
TGI (CCRF-CEM leukemia): > 100 µM
TGI (COLO 205 colon): > 100 µM
TGI (DLD-1 colon): > 100 µM
TGI (DMS 114 small cell lung): > 100 µM
TGI (DMS 273 small cell lung): > 100 µM
TGI (EKVX NSCLC): > 100 µM
TGI (HCC-2998 colon): > 100 µM
TGI (HCT-116 colon): > 100 µM
TGI (HCT-15 colon): > 100 µM
TGI (HL-60(TB) leukemia): > 100 µM
TGI (HOP-18 NSCLC): > 100 µM
TGI (HOP-62 NSCLC): > 100 µM
TGI (HOP-92 NSCLC): > 100 µM
TGI (HT29 colon): > 100 µM
TGI (IGROV1 ovarian): > 100 µM
TGI (K-562 leukemia): > 100 µM
TGI (KM12 colon): > 100 µM
TGI (KM20L2 colon): > 100 µM
TGI (LOX IMVI melanoma): > 100 µM
TGI (LXFL 529 NSCLC): > 100 µM
TGI (M14 melanoma): > 100 µM
TGI (M19-MEL melanoma): > 100 µM
TGI (MALME-3M melanoma): > 100 µM
TGI (MOLT-4 leukemia): > 100 µM
TGI (NCI-H226 lung): > 100 µM
TGI (NCI-H23 lung): > 100 µM
TGI (NCI-H460 lung): > 100 µM
TGI (OVCAR-3 ovarian): > 100 µM
TGI (OVCAR-4 ovarian): > 100 µM
TGI (OVCAR-5 ovarian): > 100 µM
TGI (OVCAR-8 ovarian): > 100 µM
TGI (RXF 393 renal): > 100 µM
TGI (RXF-631 renal): > 100 µM
TGI (SF-268 CNS): > 100 µM
TGI (SF-295 CNS): > 100 µM
TGI (SF-539 CNS): > 100 µM
TGI (SK-MEL-2 melanoma): > 100 µM
TGI (SK-MEL-28 melanoma): > 100 µM
TGI (SK-MEL-5 melanoma): > 100 µM
TGI (SK-OV-3 ovarian): > 100 µM
TGI (SN12C renal): > 100 µM
TGI (SNB-19 CNS): > 100 µM
TGI (SNB-78 CNS): > 100 µM
TGI (SR leukemia): > 100 µM
TGI (SW-620 colon): > 100 µM
TGI (TK-10 renal): > 100 µM
TGI (U251 CNS): > 100 µM
TGI (UACC-257 melanoma): > 100 µM
TGI (UACC-62 melanoma): > 100 µM
TGI (UO-31 renal): > 100 µM

CSc1nc2nc(C)c(C)nc2c(=O)[nH]1
TGI (786-0 renal): > 100 µM
TGI (A498 renal): > 100 µM
TGI (A549 NSCLC): > 100 µM
TGI (ACHN renal): > 100 µM
TGI (CAKI-1 renal): > 100 µM
TGI (CCRF-CEM leukemia): > 100 µM
TGI (COLO 205 colon): > 100 µM
TGI (DLD-1 colon): > 100 µM
TGI (DMS 114 small cell lung): > 100 µM
TGI (DMS 273 small cell lung): > 100 µM
TGI (EKVX NSCLC): > 100 µM
TGI (HCC-2998 colon): > 100 µM
TGI (HCT-116 colon): > 100 µM
TGI (HCT-15 colon): > 100 µM
TGI (HL-60(TB) leukemia): > 100 µM
TGI (HOP-18 NSCLC): > 100 µM
TGI (HOP-62 NSCLC): > 100 µM
TGI (HOP-92 NSCLC): > 100 µM
TGI (HT29 colon): > 100 µM
TGI (IGROV1 ovarian): > 100 µM
TGI (K-562 leukemia): > 100 µM
TGI (KM12 colon): > 100 µM
TGI (KM20L2 colon): > 100 µM
TGI (LOX IMVI melanoma): > 100 µM
TGI (LXFL 529 NSCLC): > 100 µM
TGI (M14 melanoma): > 100 µM
TGI (M19-MEL melanoma): > 100 µM
TGI (MALME-3M melanoma): > 100 µM
TGI (MOLT-4 leukemia): > 100 µM
TGI (NCI-H23 lung): > 100 µM
TGI (NCI-H460 lung): > 100 µM
TGI (NCI-H522 lung): > 100 µM
TGI (OVCAR-3 ovarian): > 100 µM
TGI (OVCAR-4 ovarian): > 100 µM
TGI (OVCAR-5 ovarian): > 100 µM
TGI (OVCAR-8 ovarian): > 100 µM
TGI (RPMI-8226 leukemia): > 100 µM
TGI (RXF 393 renal): > 100 µM
TGI (SF-268 CNS): > 100 µM
TGI (SF-295 CNS): > 100 µM
TGI (SK-MEL-2 melanoma): > 100 µM
TGI (SK-MEL-28 melanoma): > 100 µM
TGI (SK-MEL-5 melanoma): > 100 µM
TGI (SK-OV-3 ovarian): > 100 µM
TGI (SN12C renal): > 100 µM
TGI (SNB-19 CNS): > 100 µM
TGI (SNB-75 CNS): > 100 µM
TGI (SR leukemia): > 100 µM
TGI (SW-620 colon): > 100 µM
TGI (TK-10 renal): > 100 µM
TGI (U251 CNS): > 100 µM
TGI (UACC-257 melanoma): > 100 µM
TGI (UACC-62 melanoma): > 100 µM
TGI (UO-31 renal): > 100 µM
TGI (XF 498 CNS): > 100 µM

Cn1nc(-c2ccccc2)c(C(=O)/C=C/c2ccccc2)c(N2CCCCC2)c1=O
TGI (786-0 renal): > 100 µM
TGI (A549 NSCLC): > 100 µM
TGI (ACHN renal): > 100 µM
TGI (CAKI-1 renal): 60.1 µM
TGI (CCRF-CEM leukemia): > 100 µM
TGI (COLO 205 colon): > 100 µM
TGI (DLD-1 colon): > 100 µM
TGI (DMS 114 small cell lung): > 100 µM
TGI (DMS 273 small cell lung): > 100 µM
TGI (EKVX NSCLC): > 100 µM
TGI (HCT-116 colon): > 100 µM
TGI (HCT-15 colon): > 100 µM
TGI (HL-60(TB) leukemia): 12.3 µM
TGI (HOP-18 NSCLC): > 100 µM
TGI (HOP-62 NSCLC): 42.8 µM
TGI (HOP-92 NSCLC): 86.7 µM
TGI (HT29 colon): 69 µM
TGI (IGROV1 ovarian): > 100 µM
TGI (K-562 leukemia): > 100 µM
TGI (KM20L2 colon): > 100 µM
TGI (LOX IMVI melanoma): > 100 µM
TGI (LXFL 529 NSCLC): > 100 µM
TGI (M14 melanoma): > 100 µM
TGI (MOLT-4 leukemia): > 100 µM
TGI (NCI-H23 lung): > 100 µM
TGI (NCI-H460 lung): > 100 µM
TGI (NCI-H522 lung): > 100 µM
TGI (OVCAR-8 ovarian): > 100 µM
TGI (RXF 393 renal): 73.1 µM
TGI (RXF-631 renal): > 100 µM
TGI (SF-268 CNS): > 100 µM
TGI (SF-539 CNS): > 100 µM
TGI (SK-MEL-28 melanoma): 62.8 µM
TGI (SK-MEL-5 melanoma): > 100 µM
TGI (SK-OV-3 ovarian): > 100 µM
TGI (SN12C renal): > 100 µM
TGI (SNB-19 CNS): > 100 µM
TGI (SW-620 colon): > 100 µM
TGI (TK-10 renal): > 100 µM
TGI (U251 CNS): > 100 µM
TGI (UACC-62 melanoma): > 100 µM
TGI (UO-31 renal): > 100 µM

COC(=O)C1C(=O)O[C@@H](c2ccc(OC)cc2)C1C(=O)OC (some centres not stated)
TGI (786-0 renal): > 100 µM
TGI (A498 renal): > 100 µM
TGI (A549 NSCLC): > 100 µM
TGI (ACHN renal): > 100 µM
TGI (CAKI-1 renal): > 100 µM
TGI (CCRF-CEM leukemia): > 100 µM
TGI (COLO 205 colon): > 100 µM
TGI (DLD-1 colon): > 100 µM
TGI (DMS 114 small cell lung): > 100 µM
TGI (DMS 273 small cell lung): > 100 µM
TGI (EKVX NSCLC): > 100 µM
TGI (HCC-2998 colon): > 100 µM
TGI (HCT-116 colon): > 100 µM
TGI (HOP-18 NSCLC): > 100 µM
TGI (HOP-62 NSCLC): > 100 µM
TGI (HOP-92 NSCLC): > 100 µM
TGI (HT29 colon): > 100 µM
TGI (IGROV1 ovarian): > 100 µM
TGI (K-562 leukemia): > 100 µM
TGI (KM12 colon): > 100 µM
TGI (KM20L2 colon): > 100 µM
TGI (LOX IMVI melanoma): > 100 µM
TGI (LXFL 529 NSCLC): > 100 µM
TGI (M14 melanoma): > 100 µM
TGI (M19-MEL melanoma): > 100 µM
TGI (MALME-3M melanoma): > 100 µM
TGI (MOLT-4 leukemia): > 100 µM
TGI (NCI-H226 lung): > 100 µM
TGI (NCI-H23 lung): > 100 µM
TGI (OVCAR-3 ovarian): > 100 µM
TGI (OVCAR-4 ovarian): > 100 µM
TGI (OVCAR-5 ovarian): > 100 µM
TGI (OVCAR-8 ovarian): > 100 µM
TGI (RPMI-8226 leukemia): > 100 µM
TGI (RXF 393 renal): > 100 µM
TGI (SF-268 CNS): > 100 µM
TGI (SF-295 CNS): > 100 µM
TGI (SF-539 CNS): > 100 µM
TGI (SK-MEL-28 melanoma): > 100 µM
TGI (SK-MEL-5 melanoma): > 100 µM
TGI (SK-OV-3 ovarian): > 100 µM
TGI (SN12C renal): > 100 µM
TGI (SNB-19 CNS): > 100 µM
TGI (SNB-75 CNS): > 100 µM
TGI (SR leukemia): > 100 µM
TGI (SW-620 colon): > 100 µM
TGI (TK-10 renal): > 100 µM
TGI (U251 CNS): > 100 µM
TGI (UACC-257 melanoma): > 100 µM
TGI (UACC-62 melanoma): > 100 µM
TGI (UO-31 renal): > 100 µM
TGI (XF 498 CNS): > 100 µM
